According to US7560482B2, “Inhibitors of plasmepsins” (The Johns Hopkins University, priority 2001, dated 2009):
Like-named read-outs stand apart in the source and are kept apart here.

How the values were obtained:
human Cathepsin D = biological target: T1, human Cathepsin D (Homo sapiens, UniProt P07339); assay: Cathepsin D inhibition assay, hydrolysis of chromogenic substrate; type: biochemical
T1 construct: purchased
Procedure: (§1) The specific activity of plasmepsin II from Plasmodium falciparum (Plm II) cloned in and purified from Escherchia coli and commercially available human Cathepsin D were measured by following the hydrolysis of the chromogenic substrate Ala-Leu-Glu-Arg-Thr-nPhe-Phe-Ser-Phe-Pro-Thr-OH (California Peptide Research Inc., Napa, Calif.). The decrease in absorbance upon hydrolysis is monitored at 300 nm. Typical Plasmepsin II preparations hydrolyze chromogenic substrate at 4-5 s^−1 at 37° C. The inhibition assays were performed at 25° C. in 10 mM sodium formate, 2% DMSO, pH 4.0. These pH conditions mimic the conditions in the food vacuole of the parasite. […] Inhibition constants (Ki) for the inhibitors are obtained at the desired temperature and solvent conditions by measuring the rate of substrate hydrolysis at increasing amounts of inhibitors. Exemplary results from three compounds (KNI-10033, KNI-10030 and KNI-10006) are shown in FIG. 7A-C, and the results obtained with all KNI compounds tested are given in Table 1.

[1] = biological target: T2, plasmepsin II from Plasmodium falciparum (Plm II) (Plasmodium falciparum, UniProt P46925); assay: Plasmepsin II inhibition assay, hydrolysis of chromogenic substrate; type: biochemical; conditions: for discrimination factor / Cathepsin D selectivity: Plasmepsin II versus Cathepsin D, fold; for Discrimination Factor: Fold Selectivity for Plasmepsin II over Cathepsin D: ratio of the Ki for Cathepsin D to the Ki for Plasmepsin II
T2 construct: made in house; host or cells: Escherichia coli
Procedure: FIG. 7A-C. Inhibition of Plasmepsin II from Plasmodium falciparum by KNI-10033, KNI-10030 and KNI-10006 at 20° C. in 10 mM sodium citrate, 100 mM NaCl, 2% DMSO, pH 4.0. The inhibition constants are 3 nM, 11 nM and 0.5 rLM respectively.
as §1

[2] = 25° C., 10 mM sodium formate, 2% DMSO, pH 4.0, fit to competitive inhibition, read-out: Ki CatD
[3] = Table 2, read-out: Ki Cathepsin D
[4] = 25° C., 10 mM sodium formate, 2% DMSO, pH 4.0, fit to competitive inhibition, read-out: Ki Plm II
[5] = Table 2, read-out: Ki Plasmepsin II
[6] = 20° C., 10 mM sodium citrate, 100 mM NaCl, 2% DMSO, pH 4.0, read-out: inhibition constant, Plasmepsin II (FIG. 7)

T2 sequence (P46925 125-453): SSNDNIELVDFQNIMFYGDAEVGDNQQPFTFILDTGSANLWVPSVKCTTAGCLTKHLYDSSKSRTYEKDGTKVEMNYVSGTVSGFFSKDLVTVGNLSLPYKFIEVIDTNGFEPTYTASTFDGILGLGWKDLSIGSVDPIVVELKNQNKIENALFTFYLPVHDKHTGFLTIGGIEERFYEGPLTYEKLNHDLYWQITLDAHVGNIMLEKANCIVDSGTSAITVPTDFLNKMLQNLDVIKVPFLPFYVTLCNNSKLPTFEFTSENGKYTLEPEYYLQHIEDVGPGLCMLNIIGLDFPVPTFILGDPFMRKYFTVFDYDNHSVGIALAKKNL
T1 sequence (P07339 65-412): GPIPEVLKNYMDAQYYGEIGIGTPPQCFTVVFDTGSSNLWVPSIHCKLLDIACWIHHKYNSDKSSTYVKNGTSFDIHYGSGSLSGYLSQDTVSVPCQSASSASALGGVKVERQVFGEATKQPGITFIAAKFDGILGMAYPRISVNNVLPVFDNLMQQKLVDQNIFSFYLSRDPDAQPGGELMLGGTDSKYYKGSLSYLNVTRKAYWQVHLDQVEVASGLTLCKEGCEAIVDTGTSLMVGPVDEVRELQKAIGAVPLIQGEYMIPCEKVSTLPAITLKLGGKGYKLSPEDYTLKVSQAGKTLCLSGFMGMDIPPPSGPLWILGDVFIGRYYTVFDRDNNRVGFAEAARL

Compound	Ki (human Cathepsin D; [2]) [nM]	Ki [1, 4] [nM]	further results
CSCC(NC(=O)COc1cccc2cnccc12)C(=O)NC(Cc1ccccc1)C(O)C(=O)N1CSC(C)(C)C1C(=O)NC(C)(C)C (stereo not drawn) [KNI-227]	1770 ± 230	36 ± 10	Ki (human Cathepsin D; [3]): 1770 nM; inhibition constants against Plasmepsin II, in words [1]: nanomolar and subnanomolar range; discrimination factor / Cathepsin D selectivity [1]: 50; Ki [1, 5]: 36 nM; Discrimination Factor: Fold Selectivity for Plasmepsin II over Cathepsin D [1]: ~49; Ki ([1]; read-out: Ki against Plasmepsin II): 30 nM
CSC[C@H](NC(=O)COc1cccc2cnccc12)C(=O)N[C@@H](Cc1ccccc1)[C@H](O)C(=O)N1CSC[C@H]1C(=O)NC(C)(C)C [KNI-272]	2580 ± 300	1000 ± 200	
CC(C)(C)NC(=O)[C@@H]1CSCN1C(=O)[C@@H](O)[C@H](Cc1ccccc1)NC(=O)CCC(=O)O [KNI-357]	8120 ± 1500	96900 ± 19100	
CC(C)(C)NC(=O)[C@@H]1CSCN1C(=O)[C@@H](O)[C@H](Cc1ccccc1)NC(=O)CC(C)(C)C(=O)O [KNI-391]	1350 ± 80	12700 ± 1500	Ki (human Cathepsin D; read-out: Ki for Cathepsin D): 1350 nM
CC(C)(C)NC(=O)[C@H]1N(C(=O)[C@@H](O)[C@H](Cc2ccccc2)NC(=O)CC(C)(C)C(=O)O)CSC1(C)C [KNI-413]	7260 ± 1400	1390 ± 500	
CC(C)[C@H](NC(=O)COc1cccc2cnccc12)C(=O)N[C@@H](Cc1ccccc1)[C@H](O)C(=O)N1CSC(C)(C)[C@H]1C(=O)NC(C)(C)C [KNI-492]	3700 ± 350	340 ± 20	
CSC[C@H](NC(=O)COc1cccc2cnccc12)C(=O)N[C@@H](Cc1ccccc1)[C@@H](O)C(=O)N1CSC[C@H]1C(=O)NC(C)(C)C [KNI-529]	8820 ± 2800	8090 ± 2600	
CC(C(=O)O)C(C)C(=O)N[C@@H](Cc1ccccc1)[C@H](O)C(=O)N1CSC[C@H]1C(=O)NC(C)(C)C (stereo partly drawn) [KNI-547]	18200 ± 3300	30700 ± 8100	
Cc1c(O)cccc1C(=O)N[C@@H](Cc1ccccc1)[C@H](O)C(=O)N1CSC(C)(C)[C@H]1C(=O)NC(C)(C)C [KNI-577]	3440 ± 700	590 ± 70	
Cc1cccc(C)c1OCC(=O)NC(Cc1ccccc1)C(O)C(=O)N1CSC(C)(C)C1C(=O)NC(C)(C)C (stereo not drawn) [KNI-727]	1600 ± 300	70 ± 40	Ki (human Cathepsin D; [3]): 1600 nM; inhibition constants against Plasmepsin II, in words [1]: nanomolar and subnanomolar range; discrimination factor / Cathepsin D selectivity [1]: 22; Discrimination Factor: Fold Selectivity for Plasmepsin II over Cathepsin D [1]: ~23
CC[C@H](C)[C@H](NC(=O)COc1cccc2cnccc12)C(=O)N[C@@H](Cc1ccccc1)[C@H](O)C(=O)N1CSC(C)(C)[C@H]1C(=O)NC(C)(C)C [KNI-10001]	1610 ± 330	359 ± 60	
CC(C)[C@H](NC(=O)c1cc(=O)c2ccccc2o1)C(=O)N[C@@H](Cc1ccccc1)[C@H](O)C(=O)N1CSC(C)(C)[C@H]1C(=O)NC(C)(C)C [KNI-10002]	112 ± 20	244 ± 20	
CC(C)[C@H](NC(=O)c1ccccn1)C(=O)N[C@@H](Cc1ccccc1)[C@H](O)C(=O)N1CSC(C)(C)[C@H]1C(=O)NC(C)(C)C [KNI-10003]	970 ± 100	1150 ± 190	
CC(C)[C@H](NC(=O)c1ccc2ccccc2n1)C(=O)N[C@@H](Cc1ccccc1)[C@H](O)C(=O)N1CSC(C)(C)[C@H]1C(=O)NC(C)(C)C [KNI-10004]	290 ± 90	522 ± 50	
CC(C)[C@H](NC(=O)COc1cccc(Nc2ccccc2)c1)C(=O)N[C@@H](Cc1ccccc1)[C@H](O)C(=O)N1CSC(C)(C)[C@H]1C(=O)NC(C)(C)C [KNI-10005]	507 ± 100	250 ± 190	
Cc1cccc(C)c1OCC(=O)N[C@@H](Cc1ccccc1)[C@H](O)C(=O)N1CSC(C)(C)[C@H]1C(=O)N[C@H]1c2ccccc2C[C@H]1O [KNI-10006]	2		Ki (human Cathepsin D; [3]): 2 nM; inhibition constants against Plasmepsin II, in words [1]: nanomolar and subnanomolar range; discrimination factor / Cathepsin D selectivity [1]: 4; Ki [1, 5]: 0.5 nM; Discrimination Factor: Fold Selectivity for Plasmepsin II over Cathepsin D [1]: 4; Ki ([1]; read-out: Ki (Plasmepsin II)): 0.5 nM
Cc1cccc(C)c1OCC(=O)N[C@@H](Cc1ccccc1)[C@H](O)C(=O)N1CSC(C)(C)[C@H]1C(=O)N[C@@H]1c2ccccc2C[C@@H]1O [KNI-10007]	806 ± 600	71 ± 10	
COc1ccc(CNC(=O)[C@H]2N(C(=O)[C@@H](O)[C@H](Cc3ccccc3)NC(=O)COc3c(C)cccc3C)CSC2(C)C)cc1 [KNI-10008]	461 ± 140	169 ± 20	
CC(C)[C@H](NC(=O)c1cc2ccccc2o1)C(=O)N[C@@H](Cc1ccccc1)[C@H](O)C(=O)N1CSC(C)(C)[C@H]1C(=O)NC(C)(C)C [KNI-10009]	515 ± 47	2180 ± 250	
COc1ccc(CCNC(=O)[C@H]2N(C(=O)[C@@H](O)[C@H](Cc3ccccc3)NC(=O)COc3c(C)cccc3C)CSC2(C)C)cc1 [KNI-10025]	655 ± 83	75 ± 10	
Cc1cccc(C)c1OCC(=O)N[C@@H](Cc1ccccc1)[C@H](O)C(=O)N1CSC(C)(C)[C@H]1C(=O)N[C@H]1CCc2ccccc21 [KNI-10026]	105 ± 18	15 ± 5	Ki (human Cathepsin D; [3]): 105 nM; inhibition constants against Plasmepsin II, in words [1]: nanomolar and subnanomolar range; Ki [1, 5]: 15 nM; Discrimination Factor: Fold Selectivity for Plasmepsin II over Cathepsin D [1]: 7
CC(C)[C@H](NC(=O)c1cccc2ccccc12)C(=O)N[C@@H](Cc1ccccc1)[C@H](O)C(=O)N1CSC(C)(C)[C@H]1C(=O)NC(C)(C)C [KNI-10027]	1030 ± 200	1070 ± 90	
CC(C)[C@H](NC(=O)Cc1cccc2ccccc12)C(=O)N[C@@H](Cc1ccccc1)[C@H](O)C(=O)N1CSC(C)(C)[C@H]1C(=O)NC(C)(C)C [KNI-10028]	690 ± 70	1630 ± 157	
CC(C)[C@H](NC(=O)Cc1ccc2ccccc2c1)C(=O)N[C@@H](Cc1ccccc1)[C@H](O)C(=O)N1CSC(C)(C)[C@H]1C(=O)NC(C)(C)C [KNI-10029]	282 ± 39	860 ± 90	
Cc1cccc(C)c1OCC(=O)N[C@@H](Cc1ccccc1)[C@H](O)C(=O)N1CSC(C)(C)[C@H]1C(=O)N[C@H](C)c1ccccc1 [KNI-10030]	111 ± 15		Ki (human Cathepsin D; [3]): 111 nM; Ki [1, 6]: 11 nM; Ki [1, 5]: 11 nM; Discrimination Factor: Fold Selectivity for Plasmepsin II over Cathepsin D [1]: ~10
Cc1cccc(C)c1OCC(=O)N[C@@H](Cc1ccccc1)[C@H](O)C(=O)N1CSC(C)(C)[C@H]1C(=O)Nc1cccc2ccccc12 [KNI-10031]	130 ± 19	83 ± 7	
CSCC[C@H](NC(=O)COc1cccc2cnccc12)C(=O)N[C@@H](Cc1ccccc1)[C@H](O)C(=O)N1CSC(C)(C)[C@H]1C(=O)NC(C)(C)C [KNI-10032]	2620 ± 390	535 ± 55	
CSC[C@H](NC(=O)COc1cccc2cnccc12)C(=O)N[C@@H](Cc1ccccc1)[C@H](O)C(=O)N1CSC(C)(C)[C@H]1C(=O)N[C@H]1Cc2ccccc2[C@H]1O [KNI-10033]	40 ± 10		Ki (human Cathepsin D; read-out: Ki for Cathepsin D): 40 nM; inhibition constants against Plasmepsin II, in words [1]: nanomolar and subnanomolar range; Ki [1, 6]: 3 nM; Ki [1, 5]: 3 nM; Discrimination Factor: Fold Selectivity for Plasmepsin II over Cathepsin D [1]: ~13
CSC[C@H](NC(=O)COc1c(C)cccc1C)C(=O)N[C@@H](Cc1ccccc1)[C@H](O)C(=O)N1CSC(C)(C)[C@H]1C(=O)NC(C)(C)C [KNI-10041]	1670 ± 256	496 ± 69	
CCC[C@H](NC(=O)COc1cccc2cnccc12)C(=O)N[C@@H](Cc1ccccc1)[C@H](O)C(=O)N1CSC(C)(C)[C@H]1C(=O)NC(C)(C)C [KNI-10042]	2260 ± 166	222 ± 17	
